In patent publication EP1501797B1, “3-(SUBSTITUTED AMINO)-1H-INDOLE-2-CARBOXYLIC ACID ESTER AND 3-(SUBSTITUTED AMINO)-BENZO[B]THIOPHENE-2-CARBOXYLIC ACID ESTER DERIVATIVES AS INTERLEUKIN-4 GENE EXPRESSION INHIBITORS” (Aventis Pharmaceuticals Inc., priority 2002, dated 2003):

Assays:
[1] = Human primary Th2 cells, proliferation (viability, MTS assay); format: cell-based; conditions: human, th2 cells, MTS, read-out: Proliferation (% control) mean
Procedure: Briefly, CD4^+CD45RA^+ T cells, isolated from donor peripheral blood mononuclear cells of healthy donors, are educated in the presence of anti-CD3/CD28 antibodies and various growth factors to obtain either a Thl-like or Th2-like phenotypes as determined by the known cytokine profiles of these two cell types.
Peripheral blood mononuclear cells (PBMC) are prepared from human blood by Ficoll-Hypacque (Pharmacia). The cells are washed two times in Hanks balanced salt solution (HBSS) and counted.
Naive T cells (CD4^+/CD45RA ) are prepared by negative selection method using following antibodies and Dynabeads: anti-CD8, anti-HLA-DR, (where HLA means human leucocyte antigen) anti-CD14, anti-CD16, anti-CD19, anti-CD45RO antibodies (all from R&D Systems, 1-2 µg/ml) are added to the cells, and the cells are kept on ice for 30 min. The cells are washed two times in HBSS, and goat anti- mouse Ig-beads, (bead:target ratio, 5:1) are added. The cells and beads are slowly rotated at 4°C for 20 min. (following the protocol supplied from Dynal). The supernatant is removed and fresh goat anti-mouse Ig-beads are added to the supernatant, which is slowly rotated at 4°C for 20 min. The cells are counted and phenotypically characterized by flow cytometric analysis.
CD4^+/CD45RA^+ cells at a density of 10^6/ml in RPMI, is prepared and added to RPMI medium containing 10% Hyclone serum/ glutamine and 1-2 µg/ml anti-CD28 Ab. The cells are split in two aliquots. For Th1 cells: anti-IL-4 Ab (1-2 µg/ml), IFN-γ (1 µg/ml, or 5000 units/ml) are added to the wells. For Th2 cells: IL-4 (100-200 ng/ml), anti-IFN-γ neutralizing Ab (1-2 µg/ml), anti-IL-12 neutralizing Ab (1-2 µg/ml) are added into the wells. […] The cells are transferred to fresh wells and grown in 200 units/ml IL-2 for 2 weeks by feeding them every other day with IL-2 containing medium and splitting the cultures 1:2 or 1:3 as needed. The degree of polarization is determined by intracellular staining of cells with anti-IFN-γ and anti-IL-4 antibodies from Pharmingen, and using flow cytometry from Becton Dickinson (BD), according to manufacturers description. The cells are stimulated with PHA and alloantigens at day 14 and 28 as described below. Eight days after the second allostimulation the cells can be used for compound screening or frozen for future use. For compound testing, large quantities of Th1 and Th2 cells derived from a given donor (NYTh1 and NYTh2) were expanded and frozen as aliquots in liquid nitrogen. The cells are thawed and cultured as and when needed. The thawed cells are stimulated with alloantigen/PHA combination. The cells are used for compound screening after 8-10 days in culture.
Re-stimulation by allogeneic cells: Human PBMCs, to be used as alloantigens, are isolated from freshly drawn blood by Ficoll separation. […] Cells are counted and diluted to a final concentration of 2 x 10^6/ml in medium containing 10 µg/ml PHA and 200 units/ml IL-2.
Ninetysix well Falcon tissue culture plates (Fisher Scientific) are coated with 100 microliters per well of 10 µg/ml anti-CD3 (PharMingen) antibody in phosphate buffered saline (PBS) and stored at 4°C one day before the experiment.
On the day of assay, anti-CD3 antibody coated plates are washed with PBS once to remove all soluble anti-CD3 antibody. […] All compounds and controls are assayed in triplicates.

IL-13 = experiment: In vivo ovalbumin (OVA) mouse model, BALF IL-13; parameters: species or system mice; conditions: for IL-13 pg/ml (± SEM): 30 minutes before OVA challenge, BALF 24 hours, vehicle 120.2 ± 19.8
Procedure: This model is designed to determine the ability of a test article to modulate an antigen-induced pulmonary inflammatory cell accumulation in sensitized Balb/c mice from Charles River Laboratories. The mice are given a two week time period from arrival date prior to sensitizations.
On days 0, 7, 14, each animal is injected intraperitoneal (i.p.) with a 0.2 ml Ovalbumin Hydragel solution. Each animal receives 10 µg of Ovalbumin in 0.2 mL of Hydragel, aluminum hydroxide adsorptive gel containing 2% aluminum oxide. […] On day 22, BALF samples are collected from one group of animals and used for cytokine analysis. On day 24, BALF is obtained from a second group of animals and used for differential cell counts.
Test System: Female Babl/cJ mice (Jackson Laboratories), approximately 6-9 weeks old, each weighing approximately 20 to 25 grams, are divided into ten animals per group.
Sensitization Regimen: Mice are sensitized by an intraperitoneal injection of 10 µg ovalbumin (OVA) mixed in 4 mg aluminum hydroxide Al(OH)3 gel suspension in 0.2 ml sterile saline on Days 0, 7 and 14. This suspension is prepared one hour before intraperitoneal injection into each mouse. The animals are ready for OVA challenge on Day 21.
Antigen Challenge: Animals are exposed to aerosolized OVA on day 21 (5% w/v in sterile saline) for 20 minutes. The aerosol is generated by a PARI-Master nebulizer, the outlet of which is connected to a small Plexiglas® chamber containing the animals. Bronchoalveolar lavage is performed on Day 22.
Method of Study Performance: On day 24, 72 hours following aerosol OVA exposure, a separate group of animals are anesthetized with urethane (0.15 - 0.2 gm/kg) and the trachea is exposed and cannulated. […] Total cells and eosinophils are determined using a Technicon Hl and cytoslides, respectively. […]
Mice (12 animals per group) are sensitized with 0.2 ml of an AlOH3 hydrogel suspension (2% AlOH3) containing 50 µg/ml ovalbumin on days 0, 7 and 14. […] After the OVA challenge for 24 hours, the mice underwent bronchoalveolar lavage and IL-4 and IL-13 levels in the BALF are determined by ELISA. […]

With `O=C(O)c1[nH]c2ccccc2c1Nc1ccncc1` [Example 28, 3-(4-Pyridinylamino)-1H-indole-2-carboxylic acid] the viability at 0.01 µM ([1]; 0.01 µM) was 89.5%, the viability at 0.03 µM ([1]; 0.03 µM) was 85% and the viability at 0.1 µM ([1]; 0.1 µM) was 86.7%. The viability at 0.3 µM ([1]; 0.3 µM) was 80.6%, the viability at 1 µM ([1]; 1 µM) was 77.2% and the viability at 3 µM ([1]; 3 µM) was 72%. The viability at 10 µM ([1]; 10 µM) was 71.5%, the “IL-13 pg/ml (± SEM)” value (IL-13; 10 mg/kg intranasal) was 59.9 ± 12.7 pg/mL and the “IL-13 pg/ml (± SEM)” value (IL-13; 30 mg/kg intranasal) was 15.1 ± 7.1 pg/mL. The ED50 (IL-13; Mus musculus, mice, intranasally, FIG. 1, read-out: ED50, allergen-induced IL-13 levels in the BALF) was roughly 10 mg/kg.
